Data from ChEMBL document CHEMBL1136296, “3-cyanoindole-based inhibitors of inosine monophosphate dehydrogenase: synthesis and initial structure-activity relationships” (Bioorg Med Chem Lett, 2003).

Tests used:
[1] = target: Inosine-5'-monophosphate dehydrogenase 2 (Homo sapiens, UniProt P12268); experiment: Inhibitory activity tested against inosine-5'-monophosphate dehydrogenase 2 (IMPDH-II) enzyme
CCRF-CEM = experiment: cells; details: Homo sapiens
Description: Inhibition of CEM (human leukemia) cell proliferation.

| SMILES | IC50 [1] | IC50 (CCRF-CEM) |
| --- | --- | --- |
| Cc1cccc(-c2cnc(Nc3ccc4c(C#N)cn(C)c4c3)o2)c1 | 490 nM | > 10000 nM |
| Cn1cc(C#N)c2ccc(Nc3ncc(-c4cccc(CNC(=O)c5ccccc5)c4)o3)cc21 | 130 nM | 5300 nM |
| Cn1cc(C#N)c2ccc(NC(=O)Nc3ccccc3)cc21 | 630 nM |  |
| Cn1cc(C#N)c2ccc(Nc3ncc(-c4cccc(CNC(=O)c5ccc6ccccc6c5)c4)o3)cc21 | 40 nM | 4400 nM |
| COc1cc(NC(=O)Nc2cccc(CNC(=O)O[C@H]3CCOC3)c2)ccc1-c1cnco1 [MERIMEPODIB] | 11 nM | 490 nM |
| Cn1cc(C#N)c2ccc(Nc3ncc(-c4ccccc4CN)o3)cc21 | 280 nM | 1100 nM |
| Cn1cc(C#N)c2ccc(Nc3ncc(-c4cccc(CN)c4)o3)cc21 | 180 nM | 3500 nM |
| COc1cc(NC(=O)Nc2cccc(C)c2)ccc1C#N | 290 nM |  |
| Cn1cc(C#N)c2ccc(Nc3ncc(-c4ccc(CN)cc4)o3)cc21 | 260 nM | 2800 nM |
| Cn1cc(C#N)c2ccc(Nc3ncc(-c4ccc(CNC(=O)C(C)(C)C)cc4)o3)cc21 | 180 nM | 4900 nM |
| Cn1cc(C#N)c2ccc(Nc3ncc(-c4ccccc4)o3)cc21 | 33 nM | 8000 nM |
| COc1cc(Nc2ncc(-c3ccccc3N(C)C(=O)CN3CCOCC3)o2)ccc1-c1cnco1 |  | 520 nM |
| CC(=O)NCc1ccc(-c2cnc(Nc3ccc4c(C#N)cn(C)c4c3)o2)cc1 | 94 nM | > 10000 nM |
| CN(C)CCOC(=O)NCc1cccc(-c2cnc(Nc3ccc4c(C#N)cn(C)c4c3)o2)c1 | 210 nM | 1400 nM |
| COc1cc(Nc2ncc(-c3ccccc3)o2)ccc1C#N | 400 nM |  |

More lines, now with the values ahead:

| IC50 [1] | IC50 (CCRF-CEM) | SMILES |
| --- | --- | --- |
| 16 nM |  | COc1cc(Nc2ncc(-c3ccccc3)o2)ccc1-c1cnco1 |
| 420 nM | > 10000 nM | Cn1cc(C#N)c2ccc(Nc3ncc(-c4ccccc4CNC(=O)OCCC#N)o3)cc21 |
| 230 nM |  | Cc1ccc(NC(=O)Nc2ccc3c(C#N)cn(C)c3c2)cc1 |
| 670 nM |  | Cc1cccc(NC(=O)Nc2ccc3c(C#N)cn(C)c3c2)c1 |
| 240 nM | > 10000 nM | Cn1cc(C#N)c2ccc(Nc3ncc(-c4cccc(CNC(=O)OCCC#N)c4)o3)cc21 |
| 84 nM | 2500 nM | Cn1cc(C#N)c2ccc(Nc3ncc(-c4cccc(CNC(=O)c5cccc6ccccc56)c4)o3)cc21 |
| 266 nM |  | CC(=O)OCC(=O)N(C)c1ccccc1-c1cnc(Nc2ccc3c(C#N)cn(C)c3c2)o1 |
| 420 nM | > 10000 nM | Cn1cc(C#N)c2ccc(Nc3ncc(-c4ccccc4CNC(=O)OC4CCOC4)o3)cc21 (configuration not stated) |
| 440 nM |  | Cc1ccccc1-c1cnc(Nc2ccc3c(C#N)cn(C)c3c2)o1 |
| 260 nM | > 10000 nM | Cn1cc(C#N)c2ccc(Nc3ncc(-c4cccc(CNC(=O)OC5CCOC5)c4)o3)cc21 (configuration not stated) |
| 100 nM | > 10000 nM | Cn1cc(C#N)c2ccc(Nc3ncc(-c4ccc(CNC(=O)c5ccccc5)cc4)o3)cc21 |
| > 550 nM |  | Cc1ccc(-c2cnc(Nc3ccc4c(C#N)cn(C)c4c3)o2)cc1 |
| 6 nM |  | CC[C@H](CC#N)OC(=O)NCc1cccc(NC(=O)Nc2ccc(C#N)c(OC)c2)c1 |
| 200 nM | 3500 nM | Cn1cc(C#N)c2ccc(Nc3ncc(-c4cccc(NC(=O)c5ccccc5)c4)o3)cc21 |
